Test results from PubChem BioAssay (NCI).
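1) Cells in 96-well plates. 2) Compound, 48 h, 5 concentrations. 3) Linear interpolation between surrounding doses. 4) Unreached endpoint = highest concentration. TGI: concentration producing complete growth inhibition.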

Tests used:
Assay in all cases: NCI tumour cell line growth inhibition, 48 h
SW-620 colon = tested on: SW-620 colon
A549 NSCLC = tested on: A549 NSCLC
K-562 leukemia = tested on: K-562 leukemia
SNB-19 CNS = tested on: SNB-19 CNS
SN12C renal = tested on: SN12C renal
SF-295 CNS = tested on: SF-295 CNS
TK-10 renal = tested on: TK-10 renal
UACC-257 melanoma = tested on: UACC-257 melanoma
ACHN renal = tested on: ACHN renal
NCI-H226 lung = tested on: NCI-H226 lung
HCC-2998 colon = tested on: HCC-2998 colon
EKVX NSCLC = tested on: EKVX NSCLC
NCI/ADR-RES ovarian = tested on: NCI/ADR-RES ovarian
DU-145 prostate = tested on: DU-145 prostate
PC-3 prostate = tested on: PC-3 prostate

| SMILES | TGI (SW-620 colon) [µM] | TGI (A549 NSCLC) [µM] | TGI (K-562 leukemia) [µM] | TGI (SNB-19 CNS) [µM] | TGI (SN12C renal) [µM] | TGI (SF-295 CNS) [µM] | TGI (TK-10 renal) [µM] | TGI (UACC-257 melanoma) [µM] | TGI (ACHN renal) [µM] | TGI (NCI-H226 lung) [µM] | TGI (HCC-2998 colon) [µM] | TGI (EKVX NSCLC) [µM] | TGI (NCI/ADR-RES ovarian) [µM] | TGI (DU-145 prostate) [µM] | TGI (PC-3 prostate) [µM] |
| --- | --- | --- | --- | --- | --- | --- | --- | --- | --- | --- | --- | --- | --- | --- | --- |
| O=C1CSC(/C(=C/c2ccccc2)c2nc3ccccc3[nH]2)=N1 | > 100 | > 100 | > 100 | > 100 | > 100 | > 100 | > 100 | > 100 | > 100 | 38.4 | > 100 | > 100 |  |  |  |
| CCN(CC)CCNc1ccc2ncn3c4c(OC)ccc(OC)c4c(=O)c1c23 | 18.2 | 54.4 | 49.4 | 58.7 |  | 29.7 | > 100 | > 100 | > 100 | > 100 | 31 | 35.6 | 31.1 | 25.7 |  |
| CC1CC(=O)Nc2cc(Cl)ccc2N1C(=O)C1CC1 (centres undefined) | > 100 | > 100 | > 100 | > 100 | > 100 | > 100 | > 100 | > 100 | > 100 | > 100 | > 100 | > 100 |  | > 100 | > 100 |
| NC(=O)c1cc(-c2ccc(-n3ccnc3)cc2)n[nH]c1=O | > 100 | > 100 |  | > 100 | > 100 |  | > 100 | > 100 | > 100 |  | > 100 | > 100 |  | > 100 | > 100 |
| Oc1ccc(Cl)cc1-c1[nH]c(=S)nc(-c2ccccc2)c1Cl | > 100 | > 100 | > 100 | > 100 | > 100 | > 87.8 | > 100 | > 100 | > 100 | > 100 |  |  | > 100 | > 100 | > 100 |
| CC1(c2cccc3c2C2(O)C=CC4(CCC32)OCCO4)OCCO1 (centres undefined) | > 100 | > 100 | > 100 | > 100 | > 100 | > 100 | > 100 | > 100 | > 100 | > 100 | > 100 | > 100 |  |  |  |
| C[C@]12CCC3c4ccc(O)cc4CC[C@H]3C1CC(=O)N(N)C2=O (some centres undefined) | > 100 | > 100 | > 100 | > 100 | > 100 | > 100 | > 100 | > 100 | > 100 | > 100 | > 100 | > 100 |  | > 100 | > 100 |
| CSc1ccccc1P(c1ccccc1SC)c1ccccc1SC | > 100 | > 100 | > 100 | > 100 | > 100 | > 100 | > 100 |  | > 100 | > 100 |  | > 100 | > 100 | > 100 |  |
| O=C(O)c1c[nH]c2c(=O)[nH]cnc12 | > 100 | > 100 | > 100 | > 100 | > 100 | > 100 | > 100 | > 100 | > 100 |  | > 100 | > 100 |  |  |  |
| O=c1[nH]c(=O)n(C2CC(O)C(CO)O2)cc1NN=NCCc1ccccc1 (centres undefined) |  | > 100 | > 100 | > 100 | > 100 | > 100 | > 100 | > 100 | > 100 | > 100 |  | > 100 | > 100 | > 100 | > 100 |
| CC(C)(C)OC(=O)NC1CC=CCC1NC(=O)OC(C)(C)C (centres undefined) | > 100 | > 100 | > 100 | > 100 | > 100 | > 100 | > 100 | > 100 | > 100 | > 100 | > 100 |  | > 100 | > 100 | > 100 |
| O=C(c1ccco1)C1CC(c2ccc3ccccc3c2O)=NN1 (centres undefined) | > 100 | > 100 | > 100 |  | > 100 | > 100 | > 100 | > 100 | > 100 | > 100 | > 100 |  | > 100 | > 100 | > 100 |
| Oc1[nH]c2ccccc2c1N=NC(=S)N1CCCCC1 | 8.63 | 3.44 |  | 12.5 | 15.1 | 3.36 | 3.84 |  | 5.97 | 5.02 | 8.87 | 9.75 | 0.635 | 10.9 | 10.3 |
| O=[N+]([O-])c1ccc(N=Nc2c(O)ccc3cc(S(=O)(=O)O)ccc23)cc1 | > 100 | > 100 | > 100 | > 100 | > 100 | > 100 | > 100 | > 100 | > 100 |  |  | > 100 | > 100 | > 100 | > 100 |
| O=C(O)c1nc2cc(C(F)(F)F)ccc2nc1Nc1ccc(Cl)c(Cl)c1 | 22.7 | 21.8 | > 100 | 53.5 |  | 31.7 | 37.1 | 64.5 | 36 | 34 |  | 42.4 | 23.2 |  | 16.1 |
| CCCCC1Cc2ccccc2-c2n1c1ccccc1[n+]2C (centres undefined) | > 100 |  | > 100 |  |  | > 100 | > 100 | 25.2 | > 100 | > 100 | 48.3 | > 100 | > 100 | > 100 | 43 |
| CC(CN(C)C)C(=O)c1ccccc1C(=O)O (centres undefined) | > 100 | > 100 | > 100 | > 100 | 81.2 | > 100 | 47.7 |  | > 100 |  |  | > 100 | 92.6 | > 100 | 94.5 |
